Reference: BindingDB's records for doi:10.7270/Q2H993J6 (Pcmd, 2008)

Biological target: Coagulation factor XI (Homo sapiens, UniProt P03951)
Assay: factor XIa inhibitor concentration-response – biochemical, hits from 1536-well screen, dose response (AID 846)
Conditions: pH 7.4; 23 °C

Chain of Coagulation factor XI (P03951 19-387 limits assumed): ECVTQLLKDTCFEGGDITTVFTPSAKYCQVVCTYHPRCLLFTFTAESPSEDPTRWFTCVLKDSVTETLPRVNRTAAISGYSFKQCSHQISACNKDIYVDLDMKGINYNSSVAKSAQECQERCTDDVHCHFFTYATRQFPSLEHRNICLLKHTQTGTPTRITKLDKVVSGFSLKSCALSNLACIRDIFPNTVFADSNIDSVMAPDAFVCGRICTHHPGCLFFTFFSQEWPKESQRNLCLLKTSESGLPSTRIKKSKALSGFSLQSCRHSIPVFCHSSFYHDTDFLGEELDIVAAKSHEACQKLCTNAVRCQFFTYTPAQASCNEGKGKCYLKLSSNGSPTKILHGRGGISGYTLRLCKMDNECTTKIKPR
Chain of Coagulation factor XI (P03951 388-625 limits assumed): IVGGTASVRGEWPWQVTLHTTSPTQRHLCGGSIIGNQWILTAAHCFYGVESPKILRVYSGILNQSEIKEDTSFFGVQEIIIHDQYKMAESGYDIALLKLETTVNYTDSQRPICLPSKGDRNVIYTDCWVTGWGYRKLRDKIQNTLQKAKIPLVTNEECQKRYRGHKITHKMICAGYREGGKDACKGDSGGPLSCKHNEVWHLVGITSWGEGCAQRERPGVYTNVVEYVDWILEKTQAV

## CCCOC(=O)c1ccc(Oc2c[nH]nc2-c2ccc(OCC(=O)NN)cc2O)cc1 [4-[[(3E)-3-[4-(2-hydrazinyl-2-oxoethoxy)-6-oxo-1-cyclohexa-2,4-dienylidene]-1,2-dihydropyrazol-4-yl]oxy]benzoic acid propyl ester]
  IC50: > 50 µM

## O=C(Oc1ccc2c(=O)c(Cl)coc2c1)c1cccnc1 [MLS000523505]
  IC50: > 50 µM

## Cc1nnc(SCCn2c(Br)nc3c2c(=O)[nH]c(=O)n3C)s1
  IC50: > 50 µM

## Nn1c(C2CCCCC2)nc2ccccc2c1=O [3-azanyl-2-cyclohexyl-quinazolin-4-one]
  IC50: > 50 µM

## O=C(Oc1ccc2ccc(=O)oc2c1)c1cccs1 [2-thiophenecarboxylic acid (2-oxo-1-benzopyran-7-yl) ester]
  IC50: 2.68 µM

## COc1ccc2c(c1)-c1nc(NC(=O)c3cccs3)sc1CC2 [N-(8-methoxy-4,5-dihydrobenzo[e][1,3]benzothiazol-2-yl)-2-thiophenecarboxamide]
  IC50: 41.3 µM

## Cc1cc(C)c(S(=O)(=O)ON2C(=O)c3ccccc3C2=O)cc1C [MLS000577081]
  IC50: 1.01 µM

## CCOc1ccc(-c2c(C)[n+](-c3ccc(OCC)cc3)c3n2CCCCC3)cc1
  IC50: 0.958 µM

## CCOCCCNS(=O)(=O)c1ccc(NC(=O)c2ccc(OC)c([N+](=O)[O-])c2)cc1 [N-[4-(3-ethoxypropylsulfamoyl)phenyl]-4-methoxy-3-nitrobenzamide]
  IC50: > 50 µM

## C=CCNc1nc(NC(C)(C)CO)nc(OC)n1 [SMR000117555]
  IC50: > 50 µM

## Cc1nc2cc(NC(=O)Nc3cccc(F)c3)ccc2n1C [MLS000708492]
  IC50: > 50 µM

## Cc1cc(C)c(C)c(S(=O)(=O)ON2C(=O)c3ccccc3C2=O)c1C [2-{[(2,3,5,6-tetramethylphenyl)sulfonyl]oxy}-1H-isoindole-1,3(2H)-dione]
  IC50: 3.2 µM

## CCCCCC(=O)Nc1cccc([C+]2CC3(CC(C(N)=O)N(C(=O)c4cc([N+](=O)[O-])cc([N+](=O)[O-])c4C)C3)O[N-]2)c1 (centres undefined) [MLS000561980]
  IC50: 34.4 µM

## O=C(Oc1ccc2c(=O)c(Cl)coc2c1)c1ccncc1 [SMR000014947]
  IC50: 6.2 µM

## CCOc1ccc(NC(=O)CN2C(=O)/C(=C3\SC(=S)N(C4CCS(=O)(=O)C4)C3=O)c3ccccc32)cc1 (centres undefined) [2-[(3Z)-3-[3-[1,1-bis(oxidanylidene)thiolan-3-yl]-4-oxidanylidene-2-sulfanylidene-1,3-thiazolidin-5-ylidene]-2-oxidanylidene-indol-1-yl]-N-(4-ethoxyphenyl)ethanamide;ethanoic acid]
  IC50: > 50 µM

## CCN(C(=O)COC(=O)/C=C/c1c(C)nn(-c2ccccc2)c1C)C1CCS(=O)(=O)C1 (centres undefined) [(E)-3-(3,5-dimethyl-1-phenyl-4-pyrazolyl)-2-propenoic acid [2-[(1,1-dioxo-3-thiolanyl)-ethylamino]-2-oxoethyl] ester]
  IC50: > 50 µM

## O=C1SCCC1NC(=O)C(c1ccccc1)c1ccccc1 (centres undefined) [SMR000425361]
  IC50: > 50 µM

## CCOC(=O)COc1cc(O)c2c(=O)cc(-c3ccccc3)oc2c1 [2-[(5-hydroxy-4-oxo-2-phenyl-1-benzopyran-7-yl)oxy]acetic acid ethyl ester]
  IC50: > 50 µM

## CC(C)NC(=O)CSc1nc(-c2ccccc2)cs1 [2-[(4-phenyl-1,3-thiazol-2-yl)sulfanyl]-N-propan-2-yl-ethanamide]
  IC50: > 50 µM

## CCOc1cccc2c1OC1(C)CC2NC(=O)N1Cc1ccccc1 (centres undefined) [MLS000730538]
  IC50: > 50 µM

## Cc1ccc(C(=O)n2nc(-c3cccnc3)nc2N)cc1 [1-(4-methylbenzoyl)-3-(3-pyridinyl)-1H-1,2,4-triazol-5-amine]
  IC50: > 50 µM

## Cc1ccc(NC(=S)NCCc2ccccc2)nc1 [N-(2-Phenethyl)-N -(2-(5-methylpyridyl))thiourea]
  IC50: 5.5 µM

## O=C(NCc1ccc2c3c(cccc13)C(=O)N2)c1cccs1 [N-[(2-oxo-1H-benzo[cd]indol-6-yl)methyl]thiophene-2-carboxamide]
  IC50: > 50 µM

## C=CCOC(=O)C1C(C)=Nc2[nH]c(=O)[nH]c(=O)c2C1c1ccccc1 (centres undefined) [7-methyl-2,4-dioxo-5-phenyl-5,8-dihydro-1H-pyrido[2,3-d]pyrimidine-6-carboxylic acid prop-2-enyl ester]
  IC50: > 50 µM

## COc1ccc([N+](=O)[O-])cc1NCc1ccco1 [N-(2-furanylmethyl)-2-methoxy-5-nitroaniline]
  IC50: > 50 µM

## O=C(NCc1ccccc1)c1ccc(Cl)nc1
  IC50: > 50 µM

## CC1(C)[N-]c2ccc([N+](=O)[O-])c(N)c2[N+]1=O [MLS001012383]
  IC50: > 50 µM

## O=C(Cn1c(-c2ccccn2)nc2ccccc21)NN=Cc1cccnc1 [2-(2-pyridin-2-ylbenzimidazol-1-yl)-N-(pyridin-3-ylmethylideneamino)acetamide]
  IC50: > 50 µM

## O=C(NNC(=O)c1cccs1)c1ccc(Br)o1 [5-bromo-N'-(thiophene-2-carbonyl)furan-2-carbohydrazide]
  IC50: 8.51 µM

## COc1cc(CN=Nc2cc(C)nc(NS(=O)(=O)c3ccccc3)n2)ccc1O
  IC50: > 50 µM

## O=C(Oc1ccc(=O)n(-c2ccccc2)n1)c1cccc(Cl)c1 [(6-oxidanylidene-1-phenyl-pyridazin-3-yl) 3-chloranylbenzoate]
  IC50: 1.71 µM

## CCc1cc(-c2n[nH]cc2-c2nc3ccccc3n2C)c(O)cc1O [4-Ethyl-6-[4-(1-methyl-1H-benzoimidazol-2-yl)-1H-pyrazol-3-yl]-benzene-1,3-diol]
  IC50: > 50 µM

## O=C(NC1CCCC1)C(c1ccccn1)N(C(=O)c1csnn1)C1CC1 (centres undefined) [N-[2-(cyclopentylamino)-2-oxo-1-(2-pyridinyl)ethyl]-N-cyclopropyl-4-thiadiazolecarboxamide]
  IC50: > 50 µM

## CC(C)N(Cc1ccccc1)C(S)=NC1CCCCC1 [MLS001033857]
  IC50: > 50 µM

## Oc1ccc(C=NN2CCN(C3c4ccccc4-c4ccccc43)CC2)c(O)c1 [4-({[4-(9H-fluoren-9-yl)-1-piperazinyl]imino}methyl)-1,3-benzenediol]
  IC50: > 50 µM

## COc1ccc(-c2n[nH]cc2C2N=C(N)Nc3nc4ccccc4n32)cc1 (centres undefined)
  IC50: > 50 µM

## Cc1ccc(C(=O)NCC(=O)OC(C)C(=O)Nc2ccc(N3CCOCC3)cc2)s1 (centres undefined) [[1-(4-morpholin-4-ylanilino)-1-oxopropan-2-yl] 2-[(5-methylthiophene-2-carbonyl)amino]acetate]
  IC50: > 50 µM

## CCOC(=O)Cc1csc(NC(=O)c2sc3nc4ccc(CC)cc4cc3c2N)n1 [MLS000556627]
  IC50: > 50 µM

## O=C(Nc1cc([N+](=O)[O-])ccc1N1CCOCC1)c1ccco1 [N-(2-morpholin-4-yl-5-nitro-phenyl)furan-2-carboxamide]
  IC50: > 50 µM

## Oc1cc(Sc2ccc(Cl)cc2)c(O)n1-c1ccc2c(c1)OCCO2
  IC50: > 50 µM

## CCOC(=O)c1ccc(NC(=O)Nc2cccc(C)n2)cc1 [MLS000679527]
  IC50: > 50 µM

## NS(=O)(=O)c1ccc(Cl)cc1[N+](=O)[O-]
  IC50: > 50 µM

## NC(=O)NOCc1ccccc1 [phenylmethoxyurea]
  IC50: > 50 µM

## O=C(c1cccn2c(=O)c3cc(Br)ccc3nc12)N1CCC2(CC1)OCCO2 [2-bromanyl-6-(1,4-dioxa-8-azaspiro[4.5]decan-8-ylcarbonyl)pyrido[2,1-b]quinazolin-11-one]
  IC50: > 50 µM

## Cc1nn(CC(=O)c2ccc(Cl)s2)c(C)c1[N+](=O)[O-] [MLS001006606]
  IC50: > 50 µM

## Clc1ccc(-c2csc(N3CCOCC3)n2)cc1 [4-[4-(4-chlorophenyl)-2-thiazolyl]morpholine]
  IC50: > 50 µM

## Cc1ccc(C(=O)ON=C2CCS(=O)(=O)c3sccc32)cc1 [[[7,7-bis(oxidanylidene)-5,6-dihydrothieno[2,3-b]thiopyran-4-ylidene]amino] 4-methylbenzoate]
  IC50: 3.46 µM

## FC(F)C(F)(F)C(F)(F)C(F)(F)c1cc(-c2ccccc2)n[nH]1 [MLS000106686]
  IC50: > 50 µM

## CC1=NN(C(C#N)c2ccc([N+](=O)[O-])cc2)C(C)(C)C1 (centres undefined) [MLS001049177]
  IC50: > 50 µM

## COc1ccc(C(=O)Nc2ccc(N3CCN(c4ccc(OC)cc4)CC3)c(C#N)c2)cc1 [N-[3-cyano-4-[4-(4-methoxyphenyl)piperazin-1-yl]phenyl]-4-methoxy-benzamide]
  IC50: > 50 µM

## Cn1nnc(CC[N+](C)(C)C)n1 [SMR000427769]
  IC50: > 50 µM

## Cc1cccc(OCC(=O)NN=Cc2ccccc2C(=O)O)c1 [SMR000372421]
  IC50: > 50 µM

## O=C1c2ccc(-c3ccc4c(c3)C(=O)N(CCO)C4=O)cc2C(=O)N1CCO [SMR000282940]
  IC50: > 50 µM

## COc1cccc(NC(C)(C)c2nnnn2-c2c(C)cccc2C)c1 [N-[2-[1-(2,6-dimethylphenyl)tetrazol-5-yl]propan-2-yl]-3-methoxyaniline]
  IC50: > 50 µM

## CCOC(=O)c1c(C)n(C)c2ccc(OC)c(NC(=O)CCN3CCC(Cc4ccccc4)CC3)c12 [ethyl 5-methoxy-1,2-dimethyl-4-[3-[4-(phenylmethyl)piperidin-1-yl]propanoylamino]indole-3-carboxylate]
  IC50: > 50 µM

## CCCn1cc(C(=O)OCC)c(=O)c2cc(F)c(F)cc21 [SMR000427606]
  IC50: > 50 µM

## CC1=CC(=NNC(=S)Nc2cccnc2)CC(C)(C)C1 [SMR000385739]
  IC50: > 50 µM

## COc1ccc([N+](=O)[O-])cc1NC(=O)CC1S/C(=N\c2cccc(C)c2C)N(N=Cc2cccc(OC)c2OC)C1=O (centres undefined)
  IC50: > 50 µM

## CC1=C(C(=O)OCCOc2ccccc2)C(c2ccsc2)NC(=O)N1C (centres undefined) [2-phenoxyethyl 3,4-dimethyl-2-oxo-6-thiophen-3-yl-1,6-dihydropyrimidine-5-carboxylate]
  IC50: > 50 µM

## Oc1ccc(CN=Nc2nc(-c3cccnc3)nc3ccccc23)c(O)c1 [(4E)-3-hydroxy-4-[[2-(2-pyridin-3-ylquinazolin-4-yl)hydrazinyl]methylidene]cyclohexa-2,5-dien-1-one]
  IC50: > 50 µM

## CS(=O)(=O)c1ccc(Cl)c(NC(=O)COC(=O)CNC(=O)c2ccccc2)c1 [2-benzamidoacetic acid [2-(2-chloro-5-methylsulfonylanilino)-2-oxoethyl] ester]
  IC50: > 50 µM

## COc1ccc(S(=O)(=O)NCCOc2cccc3cccnc23)cc1OC [MLS000716779]
  IC50: > 50 µM

## CCNc1cc(N2CCNCC2)ccc1[N+](=O)[O-]
  IC50: > 50 µM

## CCCNC(=O)C1CC(c2ccc(C(F)(F)F)cc2)=NO1 (centres undefined) [N-propyl-3-[4-(trifluoromethyl)phenyl]-4,5-dihydro-1,2-oxazole-5-carboxamide]
  IC50: 14.3 µM
